Where “and” joins values, the source holds several entries; their conditions need not be identical. Equal entries are not always repeated. Entries after “also recorded” stand apart in the source; their conditions may differ. Where two headings read alike, the source gives them in different places.
What was measured:
[1] = target: T1, α1β3γ2L GABAA receptors (Homo sapiens, UniProt P14867+P18507+P28472); format: cell-based; details: for EC5 GABA-evoked currents in the presence of drug, as % of those evoked by 1 mM GABA: 300 μM drug, mean ± SD; for maximum peak current amplitude at high drug concentrations, relative to that produced by 1 mM GABA: EC5 GABA; for maximum peak current amplitude at high drug concentrations, relative to that produced by 1 mM GABA / slope of potentiation concentration-response curve: fit to equation 1
T1 sequence (P14867 28-456): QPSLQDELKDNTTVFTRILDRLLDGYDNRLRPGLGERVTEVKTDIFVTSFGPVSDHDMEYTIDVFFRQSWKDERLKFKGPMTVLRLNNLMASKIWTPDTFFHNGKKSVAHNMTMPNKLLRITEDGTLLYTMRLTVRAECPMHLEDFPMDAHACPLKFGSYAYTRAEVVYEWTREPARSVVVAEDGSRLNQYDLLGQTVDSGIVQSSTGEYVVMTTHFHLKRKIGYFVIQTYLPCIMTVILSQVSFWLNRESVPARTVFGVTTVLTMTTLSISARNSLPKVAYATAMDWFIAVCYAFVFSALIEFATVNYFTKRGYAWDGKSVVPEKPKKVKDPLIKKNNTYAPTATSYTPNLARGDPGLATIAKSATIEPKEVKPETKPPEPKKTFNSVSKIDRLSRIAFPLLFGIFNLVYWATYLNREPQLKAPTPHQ
T1 sequence (P28472 26-473): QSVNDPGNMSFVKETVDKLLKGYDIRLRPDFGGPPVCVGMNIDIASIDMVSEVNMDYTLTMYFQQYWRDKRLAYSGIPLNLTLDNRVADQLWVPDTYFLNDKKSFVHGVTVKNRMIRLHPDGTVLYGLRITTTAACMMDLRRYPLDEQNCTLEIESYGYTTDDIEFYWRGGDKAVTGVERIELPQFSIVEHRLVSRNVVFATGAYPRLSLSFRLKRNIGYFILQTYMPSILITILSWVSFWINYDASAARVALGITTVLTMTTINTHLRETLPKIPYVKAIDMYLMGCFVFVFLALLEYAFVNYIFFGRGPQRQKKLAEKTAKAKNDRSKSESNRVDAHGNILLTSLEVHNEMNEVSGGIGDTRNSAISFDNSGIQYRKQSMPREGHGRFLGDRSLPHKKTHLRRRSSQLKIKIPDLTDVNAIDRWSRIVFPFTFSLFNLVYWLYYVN
T1 sequence (P18507 40-475): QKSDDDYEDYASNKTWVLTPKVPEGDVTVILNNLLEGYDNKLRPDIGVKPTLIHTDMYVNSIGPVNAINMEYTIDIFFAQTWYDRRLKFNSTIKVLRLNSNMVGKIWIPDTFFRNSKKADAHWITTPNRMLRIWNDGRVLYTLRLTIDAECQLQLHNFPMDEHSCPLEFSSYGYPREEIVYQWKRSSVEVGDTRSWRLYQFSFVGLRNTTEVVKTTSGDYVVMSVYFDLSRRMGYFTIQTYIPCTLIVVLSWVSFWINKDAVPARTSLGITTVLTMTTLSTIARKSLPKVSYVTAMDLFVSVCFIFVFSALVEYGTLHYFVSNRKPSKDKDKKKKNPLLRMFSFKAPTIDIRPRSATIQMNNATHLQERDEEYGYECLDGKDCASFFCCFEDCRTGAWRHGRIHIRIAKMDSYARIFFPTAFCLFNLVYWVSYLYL

[2] = target: T1, α1β3γ2L GABAA receptors; format: cell-based
[3] = target: α1β3γ2L GABAA receptors (β+−α− transmembrane anesthetic sites) (Homo sapiens, UniProt P14867+P18507+P28472); test: Inhibition of receptor photoaffinity labeling by [3H]azi-etomidate; details: for slope for inhibition of [3H]azi-etomidate photoincorporation: fit to equation 2
Chain of α1β3γ2L GABAA receptors (β+−α− transmembrane anesthetic sites) (P14867 28-456): as the sequence (P14867 28-456) above
Chain of α1β3γ2L GABAA receptors (β+−α− transmembrane anesthetic sites) (P28472 26-473): as the sequence (P28472 26-473) above
Chain of α1β3γ2L GABAA receptors (β+−α− transmembrane anesthetic sites) (P18507 40-475): as the sequence (P18507 40-475) above

[4] = target: α1β3γ2L GABAA receptor open and closed states (Homo sapiens, UniProt P14867+P18507+P28472); test: Allosteric modeling of direct activation data; format: cell-based
Chain of α1β3γ2L GABAA receptor open and closed states (P14867 28-456): as the sequence (P14867 28-456) above
Chain of α1β3γ2L GABAA receptor open and closed states (P28472 26-473): as the sequence (P28472 26-473) above
Chain of α1β3γ2L GABAA receptor open and closed states (P18507 40-475): as the sequence (P18507 40-475) above

[5] = target: α1β3γ2L GABAA receptors (α+−β− and γ+−β− transmembrane anesthetic sites) (Homo sapiens, UniProt P14867+P18507+P28472); test: Inhibition of receptor photoaffinity labeling by R-[3H]mTFD-MPAB; details: for slope for inhibition of R-[3H]mTFD-MPAB photoincorporation: fit to equation 2
Chain of α1β3γ2L GABAA receptors (α+−β− and γ+−β− transmembrane anesthetic sites) (P14867 28-456): as the sequence (P14867 28-456) above
Chain of α1β3γ2L GABAA receptors (α+−β− and γ+−β− transmembrane anesthetic sites) (P28472 26-473): as the sequence (P28472 26-473) above
Chain of α1β3γ2L GABAA receptors (α+−β− and γ+−β− transmembrane anesthetic sites) (P18507 40-475): as the sequence (P18507 40-475) above

[6] = target: T1, α1β3γ2L GABAA receptors; format: cell-based; remark: listed apart in the source
[7] = target: T1, α1β3γ2L GABAA receptors; details: 300 μM naphthalene-etomidate; for Percent change in peak current amplitude, GABA EC5 + Etomidate: etomidate 3 μM; for Percent change in peak current amplitude, GABA EC5 + Pentobarbital: pentobarbital 120 μM; for Percent change in peak current amplitude, GABA EC5 + Propofol: propofol 10 μM
[8] = Aqueous saturation; format: physicochemical; details: aqueous buffer
[9] = test system: GABAA receptor transmembrane anesthetic binding sites; details: photolabel protection studies; cited from earlier work
[10] = listed as Naphthalene-etomidate
[11] = EC5 GABA + 10 μM propofol, fit to equation 2
[12] = GABA Pre-exposure, mean ± SD, n = 6
[13] = Naphthalene-etomidate Pre-exposure (10 s), mean ± SD, n = 6
[14] = Simultaneous Addition, mean ± SD, n = 6
[15] = absence of naphthalene-etomidate
[16] = presence of 300 μM naphthalene-etomidate

CCOC(=O)c1cncn1[C@H](C)c1ccccc1 [etomidate, reference compound]
fold potentiation of EC5 GABA-evoked current ([1]; 100 μM drug, representative traces, single oocyte): 14 fold
EC5 GABA-evoked currents in the presence of drug, as % of those evoked by 1 mM GABA [1]: 90 ± 7%
maximum peak current amplitude at high drug concentrations, relative to that produced by 1 mM GABA [1]: 95%
slope of potentiation concentration-response curve [1]: 1.2
slope of direct activation concentration-response curve ([2]; fit to equation 1): 1.2

CCOC(=O)c1cncn1C(C)c1cccc2ccccc12 (stereo not shown) [naphthalene-etomidate]
slope for inhibition of [3H]azi-etomidate photoincorporation [3]: −2.0
slope for inhibition of [3H]azi-etomidate photoincorporation [3, 10]: −1.2
inhibition of specific [3H]azi-etomidate photoincorporation ([3]; highest concentrations studied): ≥ 90%
fold lower affinity for the open state of the receptor versus etomidate ([4]; comparison of dissociation constants): 27 fold
fold higher affinity for the open state than the closed state ([4]; from Kdopen and Kdclosed): 4.4 fold
slope for inhibition of R-[3H]mTFD-MPAB photoincorporation [5]: −1.3
slope for inhibition of R-[3H]mTFD-MPAB photoincorporation [5, 10]: −2.0
inhibition of specific R-[3H]mTFD-MPAB photoincorporation ([5]; highest concentrations studied): ≥ 90%
EC5 GABA-evoked currents in the presence of drug, as % of those evoked by 1 mM GABA [1]: 11 ± 2.7% and 11%
maximum peak current amplitude at high drug concentrations, relative to that produced by 1 mM GABA [1]: 11%
slope of potentiation concentration-response curve [1]: 3
fold increase in EC50 for propofol potentiation of EC5 GABA-evoked currents ([6]; 300 μM naphthalene-etomidate): 6 fold
minimum normalized peak current at high naphthalene-etomidate concentrations [6, 11]: 24%
slope for inhibition of propofol-potentiated currents [6, 11]: −3.9
fold greater reduction in currents potentiated by propofol compared to currents potentiated by etomidate or pentobarbital [7]: approximately 2 fold
Percent change in peak current amplitude, GABA EC5 + Diazepam ([7]; GABA Pre-exposure, diazepam 1 μM, mean ± SD, n = 6): 33 ± 6.9%
Percent change in peak current amplitude, GABA EC5 + Etomidate [7, 12]: −24 ± 1.8%
Percent change in peak current amplitude, GABA EC50 [7, 12]: 21 ± 9%
Percent change in peak current amplitude, GABA EC5 + Pentobarbital [7, 12]: −21 ± 5.4%
Percent change in peak current amplitude, GABA EC5 + Propofol [7, 12]: −49 ± 4.69%
Percent change in peak current amplitude, GABA EC5 + Etomidate [7, 13]: −47 ± 4.1%
Percent change in peak current amplitude, GABA EC50 [7, 13]: −8.8 ± 8.6%
Percent change in peak current amplitude, GABA EC5 + Pentobarbital [7, 13]: −45 ± 7.9%
Percent change in peak current amplitude, GABA EC5 + Propofol [7, 13]: −68 ±6.0%
Percent change in peak current amplitude, GABA EC5 + Etomidate [7, 14]: −33 ± 7.8%
Percent change in peak current amplitude, GABA EC50 ([7]; Simultaneous Addition, mean ± SD, n = 6 oocytes): 7.3 ± 8.8%
Percent change in peak current amplitude, GABA EC5 + Pentobarbital [7, 14]: −33 ± 7.1%
Percent change in peak current amplitude, GABA EC5 + Propofol [7, 14]: −63 ± 7.3%
directly activated currents compared with those activated by etomidate ([2]; same oocyte, no GABA): orders of magnitude smaller
near aqueous-saturating concentration [8]: ~300 µM

CCCC(C)C1(CC)C(=O)NC(=O)NC1=O (stereo not shown) [pentobarbital]
binding selectivity for β+–α− sites as compared to α+–β−/γ+–β− sites [9]: reverse selectivity

CC(C)c1cccc(C(C)C)c1O [propofol]
binding selectivity for β+–α− sites as compared to α+–β−/γ+–β− sites [9]: essentially no selectivity at all; also recorded: virtually no binding site selectivity
peak current amplitude (normalized to 1 mM GABA) produced with EC5 GABA ([6]; 10 μM propofol, absence of naphthalene-etomidate): 61%
EC50 ([6]; EC50 for propofol potentiation of EC5 GABA-evoked currents, absence of naphthalene-etomidate, minimum constrained to 5%): 6 µM
maximal peak current response at high propofol concentrations [6, 15]: 88%
slope of propofol potentiation curve [6, 15]: 1.5
maximal peak current response at high propofol concentrations [6, 16]: 87%
slope of propofol potentiation curve [6, 16]: 1.0
